Molecular target: T1, KCNQ 2/3 channels (HEK293 cells stably expressing human KCNQ2 and KCNQ3 subunits) (Homo sapiens, UniProt O43525+O43526)
T1 construct: expressed in transfected cells; host or cells: HEK293
Test: KCNQ2/3 channel activation, thallium flux FLIPR assay with BTC-AM dye
Format: cell-based
Conditions: for Emax: HEK293, maximum response relative to the response produced by 10 μM retigabine (set at 100%), read-out: Max. %; for EC50: HEK293 cells expressing human KCNQ2 and KCNQ3, thallium flux, FLIPR
In short: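 HEK293 cells stably expressing human KCNQ2/KCNQ3 were loaded with BTC-AM (3 μg/mL, 2 h, RT) and preincubated with compound for 4 min in pH 7.3 gluconate buffer containing 0.1 mM ouabain. Flux was triggered by 6 mM TlNO3/10 mM K2SO4 and read for 3 min; EC50 came from summed responses over basal, with maximum relative to 10 μM retigabine (100%).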

Row | SMILES | Emax | EC50
1 | CC(C)c1ccc(-c2nn(NC(=O)Cc3ccc(Cl)cc3)c(=O)c3ccccc23)cc1 [Example 170, 2-(4-chlorophenyl)-N-[4-(4-isopropylphenyl)-1-oxophthalazin-2(1H)-yl]acetamide] | 104% | 0.5 to 1 µM
2 | CC(C)c1ccc(-c2nn(NC(=O)Cc3cc(F)cc(F)c3)c(=O)c3ccccc23)cc1 [Example 171, 2-(3,5-difluorophenyl)-N-[4-(4-isopropylphenyl)-1-oxophthalazin-2(1H)-yl]acetamide] | 134% | 0.5 to 1 µM
3 | CC(C)c1nn(NC(=O)CC23CC4CC(CC(C4)C2)C3)c(=O)c2cc(C(F)(F)F)ccc12 [Example 173, 2-(adamantan-1-yl)-N-[4-isopropyl-1-oxo-7-(trifluoromethyl)phthalazin-2(1H)-yl]acetamide] | -12% | > 10 µM
4 | COc1ccc(-c2nn(NC(=O)CC34CC5CC(CC(C5)C3)C4)c(=O)c3cc(Br)ccc23)cc1 [Example 174, 2-(adamantan-1-yl)-N-[7-bromo-4-(4-methoxyphenyl)-1-oxophthalazin-2(1H)-yl]acetamide] | 20% | > 10 µM
5 | COc1ccc(-c2nn(NC(=O)CC34CC5CC(CC(C5)C3)C4)c(=O)c3ccc(Br)cc23)cc1 [Example 175, 2-(adamantan-1-yl)-N-[6-bromo-4-(4-methoxyphenyl)-1-oxophthalazin-2(1H)-yl]acetamide] | 13% | > 10 µM
6 | COc1ccc(-c2nn(NC(=O)Cc3cc(F)cc(F)c3)c(=O)c3cc(Br)ccc23)cc1 [Example 177, N-[7-bromo-4-(4-methoxyphenyl)-1-oxophthalazin-2(1H)-yl]-2-(3,5-difluorophenyl)acetamide] | 48% | > 10 µM
7 | O=C(CC12CC3CC(CC(Br)(C3)C1)C2)Nn1nc(-c2ccccc2)c2ccsc2c1=O [Example 178, 2-(3-bromoadamantan-1-yl)-N-(7-oxo-4-phenylthieno[2,3-d]pyridazin-6(7H)-yl)acetamide] | 56% | > 10 µM
8 | O=C(CC12CC3CC(CC(F)(C3)C1)C2)Nn1nc(-c2ccccc2)c2ccsc2c1=O [Example 179, 2-(3-fluoroadamantan-1-yl)-N-(7-oxo-4-phenylthieno[2,3-d]pyridazin-6(7H)-yl)acetamide] | 169% | 0.5 to 1 µM
9 | O=C(CC12CC3CC(CC(O)(C3)C1)C2)Nn1nc(-c2ccccc2)c2ccsc2c1=O [Example 180, 2-(3-hydroxyadamantan-1-yl)-N-(7-oxo-4-phenylthieno[2,3-d]pyridazin-6(7H)-yl)acetamide] | -3% | > 10 µM
10 | O=C(CC12CC3CC(CC(C3)C1)C2)Nn1nc(-c2ccc(Cl)cc2)c2c(F)ccc(F)c2c1=O [Example 183, 2-(adamantan-1-yl)-N-[4-(4-chlorophenyl)-5,8-difluoro-1-oxophthalazin-2(1H)-yl]acetamide] | 178% | 0.1 to 0.5 µM
11 | O=C(Cc1cc(F)cc(F)c1)Nn1nc(-c2ccccc2)c2c(c1=O)CCCC2 [Example 186, 2-(3,5-difluorophenyl)-N-(1-oxo-4-phenyl-5,6,7,8-tetrahydrophthalazin-2(1H)-yl)acetamide] | 136% | 0.1 to 0.5 µM
12 | O=C(Cc1ccc(Cl)cc1)Nn1nc(-c2ccccc2)c2c(c1=O)CCCC2 [Example 187, 2-(4-chlorophenyl)-N-(1-oxo-4-phenyl-5,6,7,8-tetrahydrophthalazin-2(1H)-yl)acetamide] | 123% | 0.1 to 0.5 µM
13 | O=C(Cc1cc(F)cc(F)c1)Nn1nc(-c2ccccc2)c2c(c1=O)CCC2 [Example 188, 2-(3,5-difluorophenyl)-N-(1-oxo-4-phenyl-1,5,6,7-tetrahydro-2H-cyclopenta[d]pyridazin-2-yl)acetamide] | 131% | 1 to 10 µM
14 | O=C(CC12CC3CC(CC(C3)C1)C2)Nn1nc(-c2ccccc2)c2c(c1=O)CCC2 [Example 189, 2-(adamantan-1-yl)-N-(1-oxo-4-phenyl-1,5,6,7-tetrahydro-2H-cyclopenta[d]pyridazin-2-yl)acetamide] | 152% | 0.1 to 0.5 µM

Other lines, results leading:

Row | Emax | EC50 | SMILES
15 | 156% | 0.1 to 0.5 µM | Cc1ccc(-c2nn(NC(=O)C[C@@H]3C[C@@H]4C=C[C@H]3C4)c(=O)c3ccccc23)c(C)c1 [Example 159, 2-[(1S,2S,4S)-bicyclo[2.2.1]hept-5-en-2-yl]-N-[4-(2,4-dimethylphenyl)-1-oxophthalazin-2(1H)-yl]acetamide]
16 | 145% | 0.1 to 0.5 µM | Cc1ccc(-c2nn(NC(=O)Cc3ccc(Cl)cc3)c(=O)c3ccccc23)c(C)c1 [Example 161, 2-(4-chlorophenyl)-N-[4-(2,4-dimethylphenyl)-1-oxophthalazin-2(1H)-yl]acetamide]
17 | 164% | 0.1 to 0.5 µM | Cc1ccc(-c2nn(NC(=O)Cc3cc(F)cc(F)c3)c(=O)c3ccccc23)c(C)c1 [Example 162, 2-(3,5-difluorophenyl)-N-[4-(2,4-dimethylphenyl)-1-oxophthalazin-2(1H)-yl]acetamide]
18 | 155% | < 0.1 µM | Cc1ccc(-c2nn(NC(=O)CC34CC5CC(CC(C5)C3)C4)c(=O)c3ccccc23)cc1C [Example 164, 2-(adamantan-1-yl)-N-[4-(3,4-dimethylphenyl)-1-oxophthalazin-2(1H)-yl]acetamide]
19 | 112% | 0.1 to 0.5 µM | Cc1ccc(-c2nn(NC(=O)Cc3ccc(Cl)cc3)c(=O)c3ccccc23)cc1C [Example 165, 2-(4-chlorophenyl)-N-[4-(3,4-dimethylphenyl)-1-oxophthalazin-2(1H)-yl]acetamide]
20 | 161% | 0.1 to 0.5 µM | Cc1ccc(-c2nn(NC(=O)Cc3cc(F)cc(F)c3)c(=O)c3ccccc23)cc1C [Example 166, 2-(3,5-difluorophenyl)-N-[4-(3,4-dimethylphenyl)-1-oxophthalazin-2(1H)-yl]acetamide]
21 | 139% | 0.1 to 0.5 µM | CC(C)c1ccc(-c2nn(NC(=O)CC34CC5CC(CC(C5)C3)C4)c(=O)c3ccccc23)cc1 [Example 169, 2-(adamantan-1-yl)-N-[4-(4-isopropylphenyl)-1-oxophthalazin-2(1H)-yl]acetamide]
22 | 33% | 0.1 to 0.5 µM | COc1ccc(-c2nn(NC(=O)Cc3cc(F)cc(F)c3)c(=O)c3ccc(Br)cc23)cc1 [Example 176, N-[6-bromo-4-(4-methoxyphenyl)-1-oxophthalazin-2(1H)-yl]-2-(3,5-difluorophenyl)acetamide]
23 | 166% | 0.1 to 0.5 µM | O=C(Cc1cc(F)cc(F)c1)Nn1nc(-c2ccc(Cl)cc2)c2c(F)ccc(F)c2c1=O [Example 181, N-[4-(4-chlorophenyl)-5,8-difluoro-1-oxophthalazin-2(1H)-yl]-2-(3,5-difluorophenyl)acetamide]
24 | 122% | 0.1 to 0.5 µM | O=C(Cc1ccc(Cl)cc1)Nn1nc(-c2ccc(Cl)cc2)c2c(F)ccc(F)c2c1=O [Example 182, 2-(4-chlorophenyl)-N-[4-(4-chlorophenyl)-5,8-difluoro-1-oxophthalazin-2(1H)-yl]acetamide]
25 | 144% | < 0.1 µM | O=C(CC12CC3CC(CC(C3)C1)C2)Nn1nc(-c2ccccc2)c2c(c1=O)CCCC2 [Example 185, 2-(adamantan-1-yl)-N-(1-oxo-4-phenyl-5,6,7,8-tetrahydrophthalazin-2(1H)-yl)acetamide]
